Data published in patent US20100311729A1, “Substituted imidazopyridazines and pyrrolopyrimidines as lipid kinase inhibitors” (priority 2007, published 2010).

What was measured:
Format in all cases: biochemical
PI3K alfa = biological target: T1, PI3K alfa (Homo sapiens, UniProt P42336); experiment: PI3 kinase assay (Kinase-Glo luminescence), PI3K alfa; conditions: Enzymatic Data; read-out: PI3K alfa IC50 [umol]
T1 construct: for the p110-a subunit (with a deletion of the first 20 amino acids); His tag (C); made in house; host or cells: baculovirus; Tn5 (Trichoplusia ni) or TiniPro insect cells
T1 sequence (P42336 with tags, fused parts or gaps limits assumed): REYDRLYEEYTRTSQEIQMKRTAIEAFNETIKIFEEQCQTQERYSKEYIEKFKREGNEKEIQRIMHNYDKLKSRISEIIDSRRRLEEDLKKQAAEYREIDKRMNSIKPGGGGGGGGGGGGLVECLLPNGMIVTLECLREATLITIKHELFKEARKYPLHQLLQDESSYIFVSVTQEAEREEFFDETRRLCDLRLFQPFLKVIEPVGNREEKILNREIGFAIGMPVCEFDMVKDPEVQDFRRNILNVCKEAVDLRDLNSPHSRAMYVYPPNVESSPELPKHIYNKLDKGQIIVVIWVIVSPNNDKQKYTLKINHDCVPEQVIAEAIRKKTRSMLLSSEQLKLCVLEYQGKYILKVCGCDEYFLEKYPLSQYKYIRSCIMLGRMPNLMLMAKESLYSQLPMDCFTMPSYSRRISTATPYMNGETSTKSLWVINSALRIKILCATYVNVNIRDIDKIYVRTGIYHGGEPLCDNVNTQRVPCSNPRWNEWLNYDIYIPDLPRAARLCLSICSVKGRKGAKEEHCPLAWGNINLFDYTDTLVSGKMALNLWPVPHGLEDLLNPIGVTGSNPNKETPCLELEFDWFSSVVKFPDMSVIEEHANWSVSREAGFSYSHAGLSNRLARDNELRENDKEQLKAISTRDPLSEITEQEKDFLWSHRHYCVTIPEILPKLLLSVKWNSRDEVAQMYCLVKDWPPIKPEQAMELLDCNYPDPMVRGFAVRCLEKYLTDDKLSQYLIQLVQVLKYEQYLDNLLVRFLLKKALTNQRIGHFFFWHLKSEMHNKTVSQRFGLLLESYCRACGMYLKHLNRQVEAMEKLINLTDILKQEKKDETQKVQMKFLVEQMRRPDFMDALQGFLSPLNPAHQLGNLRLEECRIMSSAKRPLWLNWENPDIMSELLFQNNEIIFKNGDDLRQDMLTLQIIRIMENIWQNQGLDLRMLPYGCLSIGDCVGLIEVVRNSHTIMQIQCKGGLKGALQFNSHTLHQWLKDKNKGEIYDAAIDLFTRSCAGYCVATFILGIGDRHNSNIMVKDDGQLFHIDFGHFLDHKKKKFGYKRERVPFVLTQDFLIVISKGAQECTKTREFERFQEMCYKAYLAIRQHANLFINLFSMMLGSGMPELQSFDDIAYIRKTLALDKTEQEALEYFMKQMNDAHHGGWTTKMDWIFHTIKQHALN
Protocol: (§1) In a more preferred assay, the kinase reaction is performed in a final volume of 10 μL per well of a low volume non binding CORNING, 384 well black plate (Cat. No. #3676). The final concentrations of ATP and phosphatidyl inositol (PI) in the assay are 1 μM and 10 μg/mL respectively. The reaction is started by the addition of ATP.
(§2) The components of the assay are added per well as follows:
(§3) 50 nL test compounds in 90% DMSO per well, in columns 1-20, 8 concentrations (1/3 and 1/3.33 serial dilution step) in single. • Low control: 50 nL of 90% DMSO in half the wells of columns 23-24 (0.45% in final). • High control: 50 nL of reference compound (e.g. compound of Example 7 in WO 2006/122806, incorporated by reference hereinin that regard) in the other half of columns 23-24 (2.5 μM in final). • Standard: 50 nL of reference compound as just mentioned diluted as the test compounds in columns 21-22 • 20 mL ‘buffer’ are prepared per assay: • 200 μL of 1M TRIS HCl pH7.5 (10 mM in final) • 60 μL of 1M MgCl2 (3 mM in final) • 500 μL of 2M NaCl (50 mM in final) • 100 μL of 10% CHAPS (0.05% in final) • 200 μL of 100 mM DTT (1 mM in final) • 18.94 mL of nanopure water • 10 mL ‘PI’ are prepared per assay: • 200 μL of 1 mg/ml L-alpha-Phosphatidylinositol (Liver Bovine, Avanti Polar Lipids Cat. No. 840042C MW=909.12) prepared in 3% OctylGlucoside (10 μg/ml in final) • 9.8 mL of ‘buffer’ • 10 mL ‘ATP’ are prepared per assay: • 6.7 μL of 3 mM stock of ATP giving a final concentration of 1 μM per well • 10 mL of ‘buffer’ • 2.5 mL of each PI3K construct are prepared per assay in ‘PI’ with the following final concentration : • 10 nM PI3K alfa B-1075 • 25 nM beta BV-949 • 10 nM delta BV-1060 • 150 nM gamma BV-950 • 5 μL of ‘PI/PI3K’ are added per well. • 5 μl ‘ATP’ are added per well to start the reaction. • The plates are then incubated at room temperature for 60 minutes (alfa, beta, delta) or 120 minutes (gamma). • The reaction is terminated by the addition of 10 μL Kinase-Glo (Promega Cat. No. #6714). • The assay plates are read after 10 minutes in Synergy 2 reader (BioTek, Vermont USA) with an integration time of 100 milliseconds and sensitivity set to 191. • Output : The High control is around 60'000 counts and the Low control is 30'000 or lower • This luminescence assay gives a useful Z′ ratio between 0.4 and 0.7
(§4) […] is determined by a four parameter curve fitting routine that comes aloneg with “excel fit”. A 4 Parameter logistic equation is used to calculate IC50 values (IDBS XLfit) of the percentage inhibition of each compound at 8 concentrations (usually 10, 3.0, 1.0, 0.3, 0.1, 0.030, 0.010 and […]). Alternatively, IC50 values are calculated using idbsXLfit model 204, which is a 4 parameter logistic model.
(§5) Testing with the following kinases in the test system mentioned above, with the kinases given in the following tables, the following IC 50 data can be obtained: […]

PI3K beta = biological target: T2, PI3K beta (Homo sapiens, UniProt P42338); experiment: PI3 kinase assay (Kinase-Glo luminescence), PI3K beta; conditions: Enzymatic Data; read-out: PI3K beta IC50 [umol]
T2 construct: for the full-length p110-b subunit are generated and fused by overlapping PCR; His tag (C); made in house; host or cells: baculovirus; Tn5 (Trichoplusia ni) or TiniPro insect cells
T2 sequence (P42338 with tags, fused parts or gaps limits assumed): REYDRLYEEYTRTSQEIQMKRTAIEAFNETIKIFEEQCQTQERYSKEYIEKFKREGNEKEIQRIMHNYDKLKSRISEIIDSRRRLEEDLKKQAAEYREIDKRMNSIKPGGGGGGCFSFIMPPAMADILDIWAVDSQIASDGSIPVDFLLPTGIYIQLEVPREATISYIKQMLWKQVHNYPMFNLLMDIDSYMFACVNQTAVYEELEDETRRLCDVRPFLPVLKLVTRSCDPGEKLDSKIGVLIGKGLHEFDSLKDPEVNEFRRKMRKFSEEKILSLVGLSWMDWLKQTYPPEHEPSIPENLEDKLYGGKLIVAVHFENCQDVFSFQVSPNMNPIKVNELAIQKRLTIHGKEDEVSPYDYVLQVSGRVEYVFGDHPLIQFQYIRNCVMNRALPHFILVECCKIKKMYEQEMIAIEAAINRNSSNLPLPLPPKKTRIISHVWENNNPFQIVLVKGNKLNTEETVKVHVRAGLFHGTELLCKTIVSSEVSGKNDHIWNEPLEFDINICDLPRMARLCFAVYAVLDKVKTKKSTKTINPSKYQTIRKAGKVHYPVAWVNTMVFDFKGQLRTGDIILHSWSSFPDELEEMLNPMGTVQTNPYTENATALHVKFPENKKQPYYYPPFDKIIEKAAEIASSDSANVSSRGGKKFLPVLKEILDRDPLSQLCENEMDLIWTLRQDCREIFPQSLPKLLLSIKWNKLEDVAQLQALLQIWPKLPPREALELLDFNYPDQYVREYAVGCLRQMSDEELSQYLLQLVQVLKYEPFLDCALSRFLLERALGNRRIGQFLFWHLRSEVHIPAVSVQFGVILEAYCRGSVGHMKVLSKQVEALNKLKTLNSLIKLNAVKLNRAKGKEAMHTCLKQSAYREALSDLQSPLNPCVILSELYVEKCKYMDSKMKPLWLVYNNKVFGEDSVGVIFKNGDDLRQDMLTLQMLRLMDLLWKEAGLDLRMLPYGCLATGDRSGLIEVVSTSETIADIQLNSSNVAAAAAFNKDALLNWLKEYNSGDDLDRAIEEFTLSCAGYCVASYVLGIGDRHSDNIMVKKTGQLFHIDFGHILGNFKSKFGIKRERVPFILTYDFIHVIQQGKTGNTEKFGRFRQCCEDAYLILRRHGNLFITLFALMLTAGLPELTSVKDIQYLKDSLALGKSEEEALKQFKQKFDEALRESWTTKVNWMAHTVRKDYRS
Protocol: as §1, §2, §3, §4, §5

PI3K delta = biological target: T3, PI3K delta (Homo sapiens, UniProt O00329); experiment: PI3 kinase assay (Kinase-Glo luminescence), PI3K delta; conditions: Enzymatic Data; read-out: PI3K delta IC50 [umol]
T3 construct: for the full-length p110-d subunit are generated and fused by overlapping PCR; His tag (C); made in house; host or cells: baculovirus; Tn5 (Trichoplusia ni) or TiniPro insect cells
T3 sequence (O00329 with tags, fused parts or gaps limits assumed): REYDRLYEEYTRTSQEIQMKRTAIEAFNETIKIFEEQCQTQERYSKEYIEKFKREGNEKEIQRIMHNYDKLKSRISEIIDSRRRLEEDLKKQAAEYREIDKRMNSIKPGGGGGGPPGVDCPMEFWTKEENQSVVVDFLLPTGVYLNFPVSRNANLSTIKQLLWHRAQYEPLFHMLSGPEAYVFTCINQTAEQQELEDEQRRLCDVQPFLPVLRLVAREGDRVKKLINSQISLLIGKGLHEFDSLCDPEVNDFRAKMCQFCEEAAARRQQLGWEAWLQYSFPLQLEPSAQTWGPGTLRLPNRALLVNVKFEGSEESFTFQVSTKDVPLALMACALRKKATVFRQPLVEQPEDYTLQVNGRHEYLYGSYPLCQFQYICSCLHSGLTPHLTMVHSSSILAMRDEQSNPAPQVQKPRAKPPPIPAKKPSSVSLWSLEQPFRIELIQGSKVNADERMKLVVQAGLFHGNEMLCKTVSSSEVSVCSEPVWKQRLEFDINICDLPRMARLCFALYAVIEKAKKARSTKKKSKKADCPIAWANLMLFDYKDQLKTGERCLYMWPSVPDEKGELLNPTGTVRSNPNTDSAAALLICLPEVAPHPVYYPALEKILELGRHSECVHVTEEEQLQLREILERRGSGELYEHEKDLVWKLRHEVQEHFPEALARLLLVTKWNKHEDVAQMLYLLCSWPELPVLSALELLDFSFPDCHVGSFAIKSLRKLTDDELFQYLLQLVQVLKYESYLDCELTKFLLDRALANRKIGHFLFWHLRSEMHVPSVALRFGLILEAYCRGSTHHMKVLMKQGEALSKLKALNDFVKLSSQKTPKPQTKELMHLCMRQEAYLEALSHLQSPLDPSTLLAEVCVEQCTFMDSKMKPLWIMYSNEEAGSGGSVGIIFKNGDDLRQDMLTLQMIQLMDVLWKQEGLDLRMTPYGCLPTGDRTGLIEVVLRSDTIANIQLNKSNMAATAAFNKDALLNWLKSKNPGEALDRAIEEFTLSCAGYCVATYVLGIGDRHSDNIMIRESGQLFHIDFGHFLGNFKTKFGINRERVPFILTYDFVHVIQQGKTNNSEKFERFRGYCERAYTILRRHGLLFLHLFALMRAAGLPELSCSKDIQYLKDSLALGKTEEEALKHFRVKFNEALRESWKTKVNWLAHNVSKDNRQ
Protocol: as §1, §2, §3, §4, §5

PI3K gamma = biological target: T4, PI3K gamma (Homo sapiens, UniProt P48736); experiment: PI3 kinase assay (Kinase-Glo luminescence), PI3K gamma; conditions: Enzymatic Data; read-out: PI3K gamma IC50 [umol]
T4 construct: PI3Kγ BV-950 p110g(D144aa)-C-Term His Tag; His tag (C); made in house; host or cells: construct from the Roger Williams lab (MRC LMB) in pVL1393; baculovirus; Tn5 (Trichoplusia ni) or TiniPro insect cells
T4 sequence (P48736 144-1102 limits assumed): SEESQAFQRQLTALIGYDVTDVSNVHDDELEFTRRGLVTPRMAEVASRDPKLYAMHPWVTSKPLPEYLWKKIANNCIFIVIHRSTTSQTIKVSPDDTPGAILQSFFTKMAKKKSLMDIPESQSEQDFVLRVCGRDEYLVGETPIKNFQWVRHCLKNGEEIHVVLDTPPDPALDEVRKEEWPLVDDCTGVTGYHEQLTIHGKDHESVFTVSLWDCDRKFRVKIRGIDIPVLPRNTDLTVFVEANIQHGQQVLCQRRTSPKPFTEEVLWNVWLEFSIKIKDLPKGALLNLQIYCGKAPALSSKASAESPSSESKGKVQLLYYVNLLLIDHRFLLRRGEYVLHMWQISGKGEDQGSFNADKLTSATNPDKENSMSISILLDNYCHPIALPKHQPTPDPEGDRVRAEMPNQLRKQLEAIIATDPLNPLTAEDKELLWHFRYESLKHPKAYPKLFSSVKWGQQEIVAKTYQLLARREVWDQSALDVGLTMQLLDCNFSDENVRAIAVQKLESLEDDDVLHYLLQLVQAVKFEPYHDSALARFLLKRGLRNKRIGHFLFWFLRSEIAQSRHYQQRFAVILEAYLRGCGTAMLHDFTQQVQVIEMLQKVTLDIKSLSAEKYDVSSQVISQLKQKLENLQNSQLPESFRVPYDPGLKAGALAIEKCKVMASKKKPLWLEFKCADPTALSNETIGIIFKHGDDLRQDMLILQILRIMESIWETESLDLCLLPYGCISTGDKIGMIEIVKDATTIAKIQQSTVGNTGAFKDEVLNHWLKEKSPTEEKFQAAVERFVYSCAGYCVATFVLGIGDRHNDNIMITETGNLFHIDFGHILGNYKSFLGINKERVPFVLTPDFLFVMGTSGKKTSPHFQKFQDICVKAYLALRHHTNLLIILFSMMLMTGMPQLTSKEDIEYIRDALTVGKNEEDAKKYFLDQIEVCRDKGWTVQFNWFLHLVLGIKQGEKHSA
Protocol: as §1, §2, §4

IC50 (PI3K alfa)	IC50 (PI3K beta)	IC50 (PI3K delta)	IC50 (PI3K gamma)	Compound
128 nM	993 nM	148 nM	2430 nM	Nc1ncc(-c2ccc3ncc(-c4ccc(OCCn5cccn5)cc4)n3n2)cc1C(F)(F)F [Example 88, 5-{3-[4-(2-Pyrazol-1-yl-ethoxy)-phenyl]-imidazo[1,2-b]pyridazin-6-yl}-3-trifluoro-methyl-pyridin-2-ylamine]
171 nM	> 9100 nM	291 nM	788 nM	Nc1ncc(-c2ccc3ncc(-c4ccc(C(=O)N5CCN(CCN6CCOCC6)CC5)c(F)c4)n3n2)cc1C(F)(F)F [Example 106, {4-[6-(6-Amino-5-trifluoro-methyl-pyridin-3-yl)-imidazo [1,2-b]pyridazin-3-yl]-2-fluoro-phenyl}-[4-(2-morpholin-4-yl-ethyl)-piperazin-1-yl]-methanone]
140 nM	4070 nM	829 nM	1440 nM	Nc1ncc(-c2ccc3ncc(-c4ccc(C(=O)N5CCN(Cc6ccc(F)cc6)CC5)c(F)c4)n3n2)cc1C(F)(F)F [Example 114, {4-[6-(6-Amino-5-trifluoromethyl-pyridin-3-yl)-imidazo [1,2-b]pyridazin-3-yl]-2-fluoro-phenyl}-[4-(4-fluoro-benzyl)-piperazin-1-yl]-methanone]
62 nM	441 nM	146 nM	2150 nM	Nc1ncc(-c2cnc3ccc(-c4ccc(OCCN5CCCC5=O)c(F)c4)nn23)cc1C(F)(F)F [Example 94, 1-(2-{4-[3-(6-Amino-5-trifluoro-methyl-pyridin-3-yl)-imidazo [1,2-b]pyridazin-6-yl]-2-fluoro-phenoxy}-ethyl)-pyrrolidin-2-one]
5 nM	71 nM	6 nM	267 nM	Nc1ncc(-c2ccc3ncc(-c4ccc(C(=O)NCCN5CCS(=O)(=O)CC5)cc4)n3n2)cc1C(F)(F)F [Example 154, 4-[6-(6-Amino-5-trifluoro-methyl-pyridin-3-yl)-imidazo [1,2-b]pyridazin-3-yl]-N-[2-(1,1-dioxo-1lambda*6*- thio-morpholin-4-yl)-ethyl]-benzamide]
36 nM	267 nM	223 nM	159 nM	COc1cc(-c2ccc3ncc(-c4cnc(N)c(C(F)(F)F)c4)n3n2)ccc1OCCNC(=O)C(C)C [Example 60, N-(2-{4-[3-(6-Amino-5-trifluoro-methyl-pyridin-3-yl)-imidazo [1,2-b]pyridazin-6-yl]-2-methoxy-phenoxy}-ethyl)-isobutyr-amide]
28 nM	156 nM	138 nM	1360 nM	COc1cc(-c2ccc3ncc(-c4cnc(N)c(C(F)(F)F)c4)n3n2)ccc1OCCNC(C)=O [Example 62, N-(2-{4-[3-(6-Amino-5-trifluoro-methyl-pyridin-3-yl)-imidazo[1,2-b]pyridazin-6-yl]-2-methoxy-phenoxy}-ethyl)-acetamide]
22 nM	364 nM	295 nM	2220 nM	COc1cc(-c2ccc3ncc(-c4cnc(N)c(C(F)(F)F)c4)n3n2)ccc1OCCCNC(C)=O [Example 52, N-(3-{4-[3-(6-Amino-5-trifluoro-methyl-pyridin-3-yl)-imidazo [1,2-b]pyridazin-6-yl]-2-methoxy-phenoxy}-propyl)-acetamide]
131 nM	355 nM	207 nM	371 nM	Nc1ncc(-c2cnc3ccc(-c4ccc(OC5CCNCC5)cc4)nn23)cc1C(F)(F)F [Example 165, 5-{6-[4-(Piperidin-4-yloxy)-phenyl]-imidazo [1,2-b]pyridazin-3-yl}-3-trifluoro-methyl-pyridin-2-ylamine]
36 nM	1200 nM	52 nM	1530 nM	Nc1ncc(-c2ccc3ncc(-c4ccc(C(=O)N5CCN(Cc6ccncc6)CC5)cc4)n3n2)cc1C(F)(F)F [Example 136, {4-[6-(6-Amino-5-trifluoro-methyl-pyridin-3-yl)-imidazo [1,2-b]pyridazin-3-yl]-phenyl}-(4-pyridin-4-ylmethyl-piperazin-1-yl)-methanone]
12 nM	623 nM	14 nM	956 nM	Nc1ncc(-c2ccc3ncc(-c4ccc(C(=O)N5CCN(Cc6cccnc6)CC5)c(F)c4)n3n2)cc1C(F)(F)F [Example 112, {4-[6-(6-Amino-5-trifluoro-methyl-pyridin-3-yl)-imidazo [1,2-b]pyridazin-3-yl]-2-fluoro-phenyl}-(4-pyridin-3-ylmethyl-piperazin-1-yl)-methanone]
1620 nM	> 9100 nM	4810 nM	6040 nM	COc1ccc(-c2ccc3ncc(-c4cnc5[nH]ccc5c4)n3n2)cc1F [Example 49, 6-(3-Fluoro-4-methoxy-phenyl)-3-(1H-pyrrolo [2,3-b]pyridin-5-yl)-imidazo [1,2-b] pyridazine]
40 nM	1180 nM	77 nM	1370 nM	COc1cc(-c2ccc3ncc(-c4cnc5[nH]ccc5c4)n3n2)ccc1OCCN1CCCC1=O [Example 110, 1-(2-{2-Methoxy-4-[3-(1H-pyrrolo [2,3-b]pyridin-5-yl)-imidazo [1,2-b]pyridazin-6-yl]-phenoxy}-ethyl)-pyrrolidin-2-one]
6900 nM	> 9100 nM	> 9100 nM	> 9100 nM	CC(C)(C)OC(=O)NCCCOc1ccc(-c2cnc3ccc(-c4cnc(N)c(C(F)(F)F)c4)nn23)cc1OC(F)(F)F [Example 40, (3-{4-[6-(6-Amino-5-trifluoro-methyl-pyridin-3-yl)-imidazo [1,2-b]pyridazin-3-yl]-2-trifluoro-methoxy-phenoxy}-propyl)-carbamic acid tert-butylester]
94 nM	701 nM	97 nM	111 nM	CC(C)C(=O)NCCOc1ccc(-c2ccc3ncc(-c4cnc(N)c(C(F)(F)F)c4)n3n2)cc1 [Example 86, N-(2-{4-[3-(6-Amino-5-trifluoro-methyl-pyridin-3-yl)-imidazo [1,2-b]pyridazin-6-yl]-phenoxy}-ethyl)-isobutyramide]
21 nM	842 nM	202 nM	2040 nM	Nc1ncc(-c2cnc3ccc(-c4ccc(OCCNC(=O)C5CC5)cc4)nn23)cc1C(F)(F)F [Example 157, Cyclo-propane-carboxylic acid (2-{4-[3-(6-amino-5-trifluoro-methyl-pyridin-3-yl)-imidazo [1,2-b]pyridazin-6-yl]-phenoxy}-ethyl)-amide]
26 nM	112 nM	15 nM	703 nM	Nc1ncc(-c2ccc3ncc(-c4ccc5c(cnn5CCN5CCOCC5)c4)n3n2)cc1C(F)(F)F [Example 131, 5-{3-[1-(2-Morpholin-4-yl-ethyl)-1H-indazol-5-yl]-imidazo [1,2-b]pyridazin-6-yl}-3-trifluoro-methyl-pyridin-2-ylamine]
